Results: the NIST ThermoML archive (doi:10.1021/je900596d)

Settings: Vibrating tube method

FC(F)=C(F)C(F)(F)F [hexafluoropropene]
Settings | mass density [kg/m3]
303.28 K, 499 kPa, Fluid (supercritical or subcritical phases) | 33.24
303.28 K, 504.3 kPa, Fluid (supercritical or subcritical phases) | 33.56
303.28 K, 509.6 kPa, Fluid (supercritical or subcritical phases) | 33.97
303.28 K, 514.9 kPa, Fluid (supercritical or subcritical phases) | 34.46
303.28 K, 525.4 kPa, Fluid (supercritical or subcritical phases) | 35.23
303.28 K, 530.6 kPa, Fluid (supercritical or subcritical phases) | 35.69
303.28 K, 535.9 kPa, Fluid (supercritical or subcritical phases) | 36.01
303.28 K, 541.1 kPa, Fluid (supercritical or subcritical phases) | 36.49
303.28 K, 546.3 kPa, Fluid (supercritical or subcritical phases) | 36.92
303.28 K, 551.5 kPa, Fluid (supercritical or subcritical phases) | 37.29
303.28 K, 556.7 kPa, Fluid (supercritical or subcritical phases) | 37.7
303.28 K, 572.3 kPa, Fluid (supercritical or subcritical phases) | 38.97
303.28 K, 577.4 kPa, Fluid (supercritical or subcritical phases) | 39.31
303.28 K, 582.5 kPa, Fluid (supercritical or subcritical phases) | 39.71
303.28 K, 587.5 kPa, Fluid (supercritical or subcritical phases) | 40.14
303.28 K, 597.7 kPa, Fluid (supercritical or subcritical phases) | 41.02
303.28 K, 605.4 kPa, Fluid (supercritical or subcritical phases) | 41.64
303.28 K, 610.5 kPa, Fluid (supercritical or subcritical phases) | 42.03
303.28 K, 615.6 kPa, Fluid (supercritical or subcritical phases) | 42.45
303.28 K, 625.6 kPa, Fluid (supercritical or subcritical phases) | 43.25
303.28 K, 630.6 kPa, Fluid (supercritical or subcritical phases) | 43.67
303.28 K, 635.6 kPa, Fluid (supercritical or subcritical phases) | 44.16
303.28 K, 640.7 kPa, Fluid (supercritical or subcritical phases) | 44.51
303.28 K, 650.7 kPa, Fluid (supercritical or subcritical phases) | 45.35
303.28 K, 655.6 kPa, Fluid (supercritical or subcritical phases) | 45.82
303.28 K, 660.6 kPa, Fluid (supercritical or subcritical phases) | 46.19
303.28 K, 665.5 kPa, Fluid (supercritical or subcritical phases) | 46.57
303.28 K, 670.5 kPa, Fluid (supercritical or subcritical phases) | 47.07
303.28 K, 675.4 kPa, Fluid (supercritical or subcritical phases) | 47.49
303.28 K, 680.3 kPa, Fluid (supercritical or subcritical phases) | 47.87
303.28 K, 685.2 kPa, Fluid (supercritical or subcritical phases) | 48.24
303.28 K, 690 kPa, Fluid (supercritical or subcritical phases) | 48.67
303.28 K, 694.8 kPa, Fluid (supercritical or subcritical phases) | 49.19
303.28 K, 709.3 kPa, Fluid (supercritical or subcritical phases) | 50.39
303.28 K, 714.1 kPa, Fluid (supercritical or subcritical phases) | 50.86
303.28 K, 718.9 kPa, Fluid (supercritical or subcritical phases) | 51.33
303.28 K, 723.7 kPa, Fluid (supercritical or subcritical phases) | 51.66
303.28 K, 728.6 kPa, Fluid (supercritical or subcritical phases) | 52.22
303.28 K, 734.4 kPa, Fluid (supercritical or subcritical phases) | 52.63
303.28 K, 746.1 kPa, Fluid (supercritical or subcritical phases) | 53.68
303.28 K, 750.9 kPa, Fluid (supercritical or subcritical phases) | 54.09
303.28 K, 756.7 kPa, Fluid (supercritical or subcritical phases) | 54.65
303.28 K, 768.4 kPa, Fluid (supercritical or subcritical phases) | 55.74
303.28 K, 774.1 kPa, Fluid (supercritical or subcritical phases) | 56.3
303.28 K, 779.9 kPa, Fluid (supercritical or subcritical phases) | 56.84
303.28 K, 785.6 kPa, Fluid (supercritical or subcritical phases) | 57.36
303.28 K, 791.2 kPa, Fluid (supercritical or subcritical phases) | 57.85
303.28 K, 796.9 kPa, Fluid (supercritical or subcritical phases) | 58.41
303.28 K, 802.6 kPa, Fluid (supercritical or subcritical phases) | 58.95
303.28 K, 808.2 kPa, Fluid (supercritical or subcritical phases) | 59.58
303.28 K, 813.9 kPa, Fluid (supercritical or subcritical phases) | 60.04
303.28 K, 823.6 kPa, Fluid (supercritical or subcritical phases) | 61.02
303.28 K, 828.8 kPa, Fluid (supercritical or subcritical phases) | 61.46
303.28 K, 838 kPa, Fluid (supercritical or subcritical phases) | 62.51
303.28 K, 841.4 kPa, Fluid (supercritical or subcritical phases) | 62.82
303.28 K, 842 kPa, Fluid (supercritical or subcritical phases) | 62.87
303.28 K, 842.4 kPa, Fluid (supercritical or subcritical phases) | 62.98
303.28 K, 843.8 kPa, Fluid (supercritical or subcritical phases) | 63.1
303.28 K, 844.7 kPa, Fluid (supercritical or subcritical phases) | 63.37
303.28 K, 845.6 kPa, Fluid (supercritical or subcritical phases) | 63.62
303.28 K, 846.3 kPa, Fluid (supercritical or subcritical phases) | 63.97
303.28 K, 846.8 kPa, Fluid (supercritical or subcritical phases) | 64.22
303.28 K, 847.7 kPa, Fluid (supercritical or subcritical phases) | 64.87
303.28 K, 848.2 kPa, Fluid (supercritical or subcritical phases) | 65.17
303.36 K, 851.7 kPa, Liquid | 1288.08
303.36 K, 854.5 kPa, Liquid | 1288.17
303.36 K, 856.9 kPa, Liquid | 1288.04
303.36 K, 858.9 kPa, Liquid | 1288.19
303.36 K, 870 kPa, Liquid | 1288.22
303.36 K, 873.5 kPa, Liquid | 1288.36
303.36 K, 880.9 kPa, Liquid | 1288.43
303.36 K, 885.8 kPa, Liquid | 1288.43
303.36 K, 887.7 kPa, Liquid | 1288.47
303.36 K, 903 kPa, Liquid | 1288.59
303.36 K, 908.2 kPa, Liquid | 1288.61
303.36 K, 911.2 kPa, Liquid | 1288.78
303.36 K, 918.3 kPa, Liquid | 1288.76
303.36 K, 927 kPa, Liquid | 1288.93
303.36 K, 935.5 kPa, Liquid | 1288.99
303.36 K, 940.8 kPa, Liquid | 1288.91
303.36 K, 943.4 kPa, Liquid | 1289.1
303.36 K, 946.1 kPa, Liquid | 1289.23
303.36 K, 954.6 kPa, Liquid | 1289.18
303.36 K, 959.8 kPa, Liquid | 1289.24
303.36 K, 965.5 kPa, Liquid | 1289.39
303.36 K, 974 kPa, Liquid | 1289.46
303.36 K, 983.2 kPa, Liquid | 1289.54
303.36 K, 988.8 kPa, Liquid | 1289.67
303.36 K, 995.6 kPa, Liquid | 1289.74
303.36 K, 1001.4 kPa, Liquid | 1289.81
303.36 K, 1006.1 kPa, Liquid | 1289.98
303.36 K, 1016.7 kPa, Liquid | 1289.99
303.36 K, 1021.3 kPa, Liquid | 1290
303.36 K, 1025.8 kPa, Liquid | 1290.01
303.36 K, 1030.5 kPa, Liquid | 1290.08
303.36 K, 1045.7 kPa, Liquid | 1290.29
303.36 K, 1063.4 kPa, Liquid | 1290.5
303.36 K, 1068.6 kPa, Liquid | 1290.58
303.36 K, 1082.5 kPa, Liquid | 1290.71
303.36 K, 1095.4 kPa, Liquid | 1290.76
303.36 K, 1106.3 kPa, Liquid | 1291.06
303.36 K, 1118.1 kPa, Liquid | 1291.22
303.36 K, 1152.1 kPa, Liquid | 1291.56
303.36 K, 1163 kPa, Liquid | 1291.61
303.36 K, 1174.7 kPa, Liquid | 1291.89
303.36 K, 1188.2 kPa, Liquid | 1292.04
303.36 K, 1203.3 kPa, Liquid | 1292.26
303.36 K, 1216 kPa, Liquid | 1292.23
303.36 K, 1235 kPa, Liquid | 1292.43
303.36 K, 1249 kPa, Liquid | 1292.78
303.36 K, 1261.3 kPa, Liquid | 1292.76
303.36 K, 1289 kPa, Liquid | 1293.23
303.36 K, 1305.6 kPa, Liquid | 1293.27
303.36 K, 1340.2 kPa, Liquid | 1293.72
303.36 K, 1361.8 kPa, Liquid | 1293.94
303.36 K, 1383.4 kPa, Liquid | 1294.19
303.36 K, 1404.6 kPa, Liquid | 1294.41
303.36 K, 1448.9 kPa, Liquid | 1294.92
303.36 K, 1483.7 kPa, Liquid | 1295.38
303.36 K, 1495.8 kPa, Liquid | 1295.69
303.36 K, 1517.4 kPa, Liquid | 1295.82
303.36 K, 1540.3 kPa, Liquid | 1296.17
303.36 K, 1561.5 kPa, Liquid | 1296.23
303.36 K, 1582.1 kPa, Liquid | 1296.56
303.36 K, 1615.7 kPa, Liquid | 1296.92
303.36 K, 1637.2 kPa, Liquid | 1297.09
303.36 K, 1659.1 kPa, Liquid | 1297.43
303.36 K, 1680.6 kPa, Liquid | 1297.48
303.36 K, 1726.5 kPa, Liquid | 1298.26
303.36 K, 1771 kPa, Liquid | 1298.55
303.36 K, 1793.6 kPa, Liquid | 1298.76
303.36 K, 1815.1 kPa, Liquid | 1299.1
303.36 K, 1837.5 kPa, Liquid | 1299.36
303.36 K, 1861.7 kPa, Liquid | 1299.58
